Laboratory results reported in patent publication US10829490B2, “Substituted dihydropyrazino[1 ′,2′:1,5]pyrrolo[2,3-d]pyrimidine-based antiproliferative agents” (G1 Therapeutics, Inc., priority 2016, dated 2020).

How the values were obtained:
Type in all cases: biochemical
[1] = target: CDK4/CyclinD1 (Homo sapiens (Human), UniProt P11802); assay: CDK4/cyclinD1 kinase assay, microfluidic kinase detection (Caliper, Nanosyn); conditions: 12-point dose-response, ATP at Km (200 μM), enzyme 1 nM, incubation 10 hr; read-out: CDK4/Cyclin D1
Protocol: (§1) Selected compounds disclosed herein were tested in CDK4/cyclinD1, CDK2/CycA and CDK2/cyclinE kinase assays by Nanosyn (Santa Clara, Calif.) to determine their inhibitory effect on these CDKs. The assays were performed using microfluidic kinase detection technology (Caliper Assay Platform). The compounds were tested in 12-point dose-response format in singlicate at Km for ATP. Phosphoacceptor substrate peptide concentration used was 1 μM for all assays and Staurosporine was used as the reference compound for all assays. Specifics of each assay are as described below:
CDK4/CyclinD1: Enzyme concentration: 1 nM; ATP concentration: 200 μM; Incubation time: 10 hr.

[2] = target: CDK6/Cyclin D3 (Homo sapiens (Human), UniProt Q00534); assay: CDK6/Cyclin D3 kinase assay (Biological Table 3)
Protocol: [Worded in the source for another target; this target is reported under the same test.] as §1, with “assays.” for “assays. Specifics of each assay are as described below:”

[3] = target: CDK2/CyclinE (Homo sapiens (Human), UniProt P24941); assay: CDK2/cyclinE kinase assay, microfluidic kinase detection (Caliper, Nanosyn); conditions: 12-point dose-response, ATP at Km (100 μM), enzyme 0.28 nM, incubation 1 hr; read-out: CDK2/Cyclin E
Protocol: as §1
CDK2/CyclinE: Enzyme concentration: 0.28 nM; ATP concentration: 100 μM; Incubation time: 1 hr.

[4] = target: CDK2/CyclinA (Homo sapiens (Human), UniProt P24941); assay: CDK2/CycA kinase assay, microfluidic kinase detection (Caliper, Nanosyn); conditions: 12-point dose-response, ATP at Km (50 μM), enzyme 0.2 nM, incubation 3 hr; read-out: CDK2/Cyclin A
Protocol: as §1
CDK2/CyclinA: Enzyme concentration: 0.2 nM; ATP concentration: 50 μM; Incubation time: 3 hr.

[5] = target: CDK9/Cyclin T (Homo sapiens (Human), UniProt P50750); assay: CDK9/Cyclin T kinase assay (Biological Table 3)
Sequence of CDK9/Cyclin T (P50750 whole entry): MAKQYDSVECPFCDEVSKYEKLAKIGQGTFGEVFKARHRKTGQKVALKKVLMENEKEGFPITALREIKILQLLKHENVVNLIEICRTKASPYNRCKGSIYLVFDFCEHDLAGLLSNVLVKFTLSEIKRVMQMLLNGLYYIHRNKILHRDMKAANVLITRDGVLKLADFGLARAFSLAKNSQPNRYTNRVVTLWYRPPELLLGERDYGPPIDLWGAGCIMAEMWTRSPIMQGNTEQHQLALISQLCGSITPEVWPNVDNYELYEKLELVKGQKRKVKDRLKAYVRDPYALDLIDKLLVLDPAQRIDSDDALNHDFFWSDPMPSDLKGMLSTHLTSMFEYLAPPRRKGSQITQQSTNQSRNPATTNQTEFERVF
Sequence of CDK9/Cyclin T (O60563 whole entry partner): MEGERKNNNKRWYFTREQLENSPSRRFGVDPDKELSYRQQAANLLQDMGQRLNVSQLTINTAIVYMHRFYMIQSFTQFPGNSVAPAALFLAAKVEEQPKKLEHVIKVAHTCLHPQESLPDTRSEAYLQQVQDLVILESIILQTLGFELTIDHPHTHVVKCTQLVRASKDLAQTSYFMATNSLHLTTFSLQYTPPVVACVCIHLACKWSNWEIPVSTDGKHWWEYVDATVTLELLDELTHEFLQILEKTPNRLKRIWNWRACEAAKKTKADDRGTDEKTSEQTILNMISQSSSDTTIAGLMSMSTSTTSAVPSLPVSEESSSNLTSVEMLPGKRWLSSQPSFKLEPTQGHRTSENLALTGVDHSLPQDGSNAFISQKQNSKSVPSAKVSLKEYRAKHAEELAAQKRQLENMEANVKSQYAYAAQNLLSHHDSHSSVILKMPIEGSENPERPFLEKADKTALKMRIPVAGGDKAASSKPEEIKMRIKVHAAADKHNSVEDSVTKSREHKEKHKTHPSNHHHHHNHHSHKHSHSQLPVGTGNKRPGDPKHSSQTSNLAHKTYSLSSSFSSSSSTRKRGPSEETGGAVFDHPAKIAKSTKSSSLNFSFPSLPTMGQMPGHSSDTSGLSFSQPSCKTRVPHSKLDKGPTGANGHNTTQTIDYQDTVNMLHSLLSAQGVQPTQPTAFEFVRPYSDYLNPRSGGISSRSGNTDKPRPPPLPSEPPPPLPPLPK

Sequence of CDK4/CyclinD1 (P11802 whole entry): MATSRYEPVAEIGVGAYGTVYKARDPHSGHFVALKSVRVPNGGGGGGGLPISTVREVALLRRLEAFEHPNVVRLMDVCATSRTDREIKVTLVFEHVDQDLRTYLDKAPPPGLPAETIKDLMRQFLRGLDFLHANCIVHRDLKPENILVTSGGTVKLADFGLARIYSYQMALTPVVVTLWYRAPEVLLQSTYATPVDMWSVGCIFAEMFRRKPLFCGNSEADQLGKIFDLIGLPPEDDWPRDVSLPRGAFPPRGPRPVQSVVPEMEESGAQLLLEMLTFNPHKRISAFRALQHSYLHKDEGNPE
Sequence of CDK4/CyclinD1 (P24385 whole entry partner): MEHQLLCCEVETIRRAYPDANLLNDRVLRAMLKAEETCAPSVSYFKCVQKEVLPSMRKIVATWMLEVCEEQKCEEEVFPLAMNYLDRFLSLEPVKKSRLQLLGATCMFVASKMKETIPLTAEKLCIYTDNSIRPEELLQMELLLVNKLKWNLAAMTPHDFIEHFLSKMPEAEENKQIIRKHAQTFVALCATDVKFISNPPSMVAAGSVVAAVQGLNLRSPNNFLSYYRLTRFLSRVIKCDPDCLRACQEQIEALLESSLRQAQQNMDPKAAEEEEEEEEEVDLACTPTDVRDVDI
Sequence of CDK6/Cyclin D3 (Q00534 whole entry): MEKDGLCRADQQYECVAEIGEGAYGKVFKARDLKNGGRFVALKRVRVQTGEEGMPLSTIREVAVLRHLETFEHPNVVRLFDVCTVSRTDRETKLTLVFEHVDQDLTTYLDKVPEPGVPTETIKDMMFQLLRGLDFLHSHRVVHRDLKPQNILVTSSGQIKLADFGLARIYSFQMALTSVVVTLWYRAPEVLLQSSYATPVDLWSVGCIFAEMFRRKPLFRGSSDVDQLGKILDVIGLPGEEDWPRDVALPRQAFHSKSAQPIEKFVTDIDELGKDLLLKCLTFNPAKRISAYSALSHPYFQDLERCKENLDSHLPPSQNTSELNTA
Sequence of CDK6/Cyclin D3 (P30281 whole entry partner): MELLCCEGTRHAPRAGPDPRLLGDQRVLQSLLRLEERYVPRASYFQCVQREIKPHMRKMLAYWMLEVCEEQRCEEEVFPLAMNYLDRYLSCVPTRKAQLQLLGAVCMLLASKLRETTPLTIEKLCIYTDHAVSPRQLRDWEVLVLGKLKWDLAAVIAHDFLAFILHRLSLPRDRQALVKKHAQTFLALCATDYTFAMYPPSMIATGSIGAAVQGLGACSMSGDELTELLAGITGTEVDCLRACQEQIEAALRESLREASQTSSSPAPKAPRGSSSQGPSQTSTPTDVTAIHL

Row | IC50 [1] [nM] | IC50 [2] [nM] | IC50 [3] [nM] | IC50 [4] [nM] | IC50 [5] [nM] | Compound
1 | 30 | 100 | 99000 | 59000 | 6300 | CN1CCN(c2ccc(Nc3ncc4cc5n(c4n3)C3(CCCCC3)Cn3ccnc3-5)nc2)CC1 [Compound 25, N-(5-(4-Methylpiperazin-1-yl)pyridin-2-yl)-5′H -spiro[cyclohexane-1,6′-imidazo[2″,1″:3′,4′]pyrazino[1′,2′:1,5]pyrrolo[2,3-d]pyrimidin]-9′-amine]
2 | 9400 | 21000 | > 100000 | > 100000 | > 100000 | CN1CCN(c2ccc(Nc3ncc4c(n3)N3C(=NCC35CCCCC5)C(=O)N4)nc2)CC1 [Compound 27, 2′-((5-(4-Methylpiperazin-1-yl)pyridin-2-yl)amino)-5′H-spiro[cyclohexane-1,9′-imidazo[2,1-h]pteridin]-6′(8′H)-one]
3 | 0.6 | 1 | 40 | 100 | 40 | CN1CCN(c2ccc(Nc3ncc4cc5n(c4n3)C3(C=NC5)CCCCC3)nc2)CC1 [Compound 31, N-(5-(4-Methylpiperazin-1-yl)pyridin-2-yl)-6′H-spiro[cyclohexane-1,9′-pyrazino[1′,2′:1,5]pyrrolo[2,3-d]pyrimidin]-2′-amine]
4 | 6 | 20 | 4000 | 2000 | 3000 | CN1CCN(c2ccc(Nc3ncc4cc5n(c4n3)C3(CCCCC3)C(=O)NC5)nc2)CC1 [Compound 33, 2′-((5-(4-Methylpiperazin-1-yl)pyridin-2-yl)amino)-6′,7′-dihydro-8′H-spiro[cyclohexane-1,9′-pyrazino [1′,2′:1,5]pyrrolo[2,3-d]pyrimidin]-8′-one]
5 | 20 | 20 | 23000 | 14000 | 400 | CN1CCN(c2ccc(Nc3ncc4cc5n(c4n3)C3(CCOCC3)CNC5=O)nc2)CC1 [Compound 34, 2′-((5-(4-Methylpiperazin-1-yl)pyridin-2-yl)amino)-2,3,5,6,7′,8′-hexahydro-6′H-spiro [pyran-4,9′-pyrazino [1′,2′:1,5]pyrrolo [2,3-d]pyrimidin]-6′-one]
6 | 4 | 30 | 300 | 100 | 2 | O=C1NCC2(CCCCC2)n2c1cc1cnc(N[C@H]3CC[C@H](N4CCN(CC5CC5)CC4)CC3)nc12 [Compound 36, 2′-(((1R,4R)-4-(4-(Cyclopropylmethyl)piperazin-1-yl)cyclohexyl)amino)-7′,8′-dihydro-6′H-spiro [cyclohexane-1,9′-pyrazino[1′,2′:1,5]pyrrolo[2,3-d]pyrimidin]-6′-one]
7 | 6 | 40 | 400 | 20 | 3 | CN1CCN([C@H]2CC[C@H](Nc3ncc4cc5n(c4n3)C3(CCCCC3)CNC5=O)CC2)CC1 [Compound 37, 2′-(((1R,4R)-4-(4-Methylpiperazin-1-yl)cyclohexyl)amino)-7′,8′-dihydro-6′H-spiro[cyclohexane-1,9′-pyrazino[1′,2′:1,5]pyrrolo[2,3-d]pyrimidin]-6′-one]
8 | 7 | 10 | 14000 | 5000 | 200 | CO[C@H]1CC[C@@]2(CC1)CNC(=O)c1cc3cnc(Nc4ccc(N5CCN(C)CC5)cn4)nc3n12 [Compound 38, (1S,4S)-4-Methoxy-2′-((5-(4-methylpiperazin-1-yl)pyridin-2-yl)amino)-7′,8′-dihydro-6′H-spiro[cyclohexane-1,9′-pyrazino[1′,2′:1,5]pyrrolo [2,3-d]pyrimidin]-6′-one]
9 | 60 | 90 | 33000 | 19000 | 200 | CO[C@H]1CC[C@]2(CC1)CNC(=O)c1cc3cnc(Nc4ccc(N5CCN(C)CC5)cn4)nc3n12 [Compound 39, (1R,4R)-4-Methoxy-2′-((5-(4-methylpiperazin-1-yl)pyridin-2-yl)amino)-7′,8′-dihydro-6′H-spiro [cyclohexane-1,9′-pyrazino[1′,2′:1,5]pyrrolo [2,3-d]pyrimidin]-6′-one]
